Records with an inconclusive call do not appear.
System: C3AKF1 mice, hamster liver cystadenocarcinoma s.c., tumor weight T/C
Test: NCI In Vivo Anticancer Drug Screen. Data for tumor model Cystadenocarcinoma, Liver (No. 1) (Hamster) (subcutaneous) in C3AKF1 (CHKRF1) mice
Settings: endpoint: mean tumor weight, schedule: Q01DX010 (ip), vehicle: carboxymethylcellulose (CMC), higher = larger tumour
Protocol: The antitumor activity of compounds was measured in mice bearing transplantable tumors. Survival or tumor size were measured and the results are expressed as the measurement made in the treated group (T) divided by the measurement made in the vehicle treated control group (C). The tumor model used in this assay is Cystadenocarcinoma, Liver (No. 1) (Hamster) (subcutaneous) in C3AKF1 (CHKRF1) mice

`CCCCCCCCCCCC[n+]1cccc2ccccc21` was tested, and the T/C (dose: 0.25 mg/kg/injection) was 73 % of control, the T/C (dose: 0.5 mg/kg/injection) was 81 % of control and the T/C (dose: 1.0 mg/kg/injection) was 91 % of control.

Source: PubChem BioAssay AID234 (DTP/NCI, 2004)
